# Assays:
# [1] = Study No. 15-4 (GLP): 14-day once daily oral gavage toxicity of fospropofol disodium; assay type: in vivo, Beagle dogs; settings: both sexes, dog, in vivo; 14 days once daily oral gavage, Beagle dogs
# Method: (§1) The purpose of Study No. 15-4 (GLP) was to determine the potential toxicity of fospropofol in Beagle dogs when administered once daily by oral gavage for 14 days. […] Because the treatment-related clinical observations (consistent with the expected transient sedative actions of fospropofol) and effects on hematology and clinical chemistry parameters were considered nonadverse, the NOAEL was determined to be 160 mg/kg/day (3200 mg/m^2/day).
# (§2) As in the rat, CNS-related clinical signs were observed which were consistent with the established pharmacodynamic effects of fospropofol. […] The NOAEL was determined to be 160 mg/kg/day (3200 mg/m^2/d) in male and female Beagle dogs.
# [2] = test system: Beagle dogs; experiment: as above; assay type: in vivo
# Method: as §1, §2
# [3] = Study No. 15-2 (non-GLP): MTD and 7-day once daily oral gavage toxicity of fospropofol disodium; assay type: in vivo, Beagle dogs; settings: dog, in vivo, Beagle dogs
# [4] = test system: Beagle dogs; experiment: as above; assay type: in vivo
# [5] = test system: moderate to severe migraine headache; experiment: Study A17: clinical course (headache pain, most bothersome symptom, associated migraine symptoms); assay type: in vivo, human; settings: 800 mg oral
# Method: The study is planned to complete approximately 85 subjects. • Enrolled subjects will be asked to come to the study site for treatment when they experience a qualifying migraine headache. Dosing must occur within 4 hours after onset of the migraine symptoms. If treatment at the study site is not feasible or practicable within 4 hours after onset of migraine symptoms, subjects should use their usual medication for that headache and attempt to visit the clinic for treatment as soon as possible (within 4 hours) after onset of their next migraine headache. Dosing must occur within 60 days after enrollment (see Post-enrollment Period below). • At clinic check-in for treatment, study personnel will verify eligibility for closing regarding the criteria for a qualifying headache and adherence to post-enrollment study restrictions (see Eligibility for Dosing below). • Treatment will consist of a single oral dose of fospropofol disodium. […] Because the prevalence of migraine headaches is higher in women than in men, efforts will be made to enroll at least 50% women. • Subjects must meet the general inclusion and exclusion criteria listed below (Inclusion Criteria and Exclusion Criteria) at screening to be enrolled in the study. To be eligible for fospropofol disodium treatment after onset of a migraine headache, enrolled subjects must meet criteria specific to the presenting headache at clinic check-in (see Qualifying Headache below) and adhere to study restrictions specific to the period between enrollment and clinic check-in (see Post-enrollment Restrictions below). • Inclusion Criteria Subjects must meet all of the following criteria at screening to be enrolled in the study: • 1. Written informed consent approved by the Institutional Review Board (IRB) given before any study-related procedures are performed • 2. […] Complete abstinence alone can be used as a method of contraception. • 6. […] Able to comprehend the nature of the study, capable of giving written informed consent, and able to communicate effectively with clinic staff (as assessed by the investigator) • 8. Available to volunteer for the entire study duration and willing to adhere to all protocol requirements, including the post-enrollment restrictions (see Post-enrollment Restrictions below) • 9. Agrees not to post any information related to the study on any website or social media site (e.g., Facebook, Twitter, LinkedIn, Google+, etc.) until the entire trial has been completed • 10. Willing to forgo rescue medicine for at least 2 hours after initiation of treatment with study drug (see In-Clinic Rescue Medicine) • Exclusion Criteria Subjects to whom any of the following criteria apply at screening will be excluded: • 1. History of hemiplegic migraine (at any time in the past). • 2. History of headaches of any type occurring on ≥15 days/month during any of the 3 months prior to screening. • 3.
# [6] = 1 hr postdose, No rescue, N = 18
# [7] = 2 h postdose, No rescue, N = 18
# [8] = 4 h postdose, No rescue, N = 18
# [9] = 24 h postdose (D2), No rescue, N = 18
# [10] = 24 h postdose (D2), Total, N = 18
# [11] = 48 h postdose (D3), Rescue, N = 18
# [12] = 48 h postdose (D3), Total, N = 18
compound,measurement,setting,value
CC(C)c1cccc(C(C)C)c1OCOP(=O)([O-])O.[Na+] [fospropofol disodium],NOAEL at 14 days,[1],160 mg/kg/day
same,Tolerability,"[2]; 0, 50, 100, and 160 mg/kg/day for 14 consecutive days",well tolerated at all close levels with no adverse findings
same,Mortalities,"[2]; 0, 50, 100, and 160 mg/kg/day for 14 days",no mortalities
same,NOAEL,"[2]; 14 days once daily oral gavage, Beagle dogs",3200 mg/m^2/day
same,"Histopathology, all tissues including GIT-related",[2]; up to 160 mg/kg/day,no treatment-related histopathological findings
same,"Body weights, cardiovascular evaluations (ECGs, QTc), ophthalmology, clinical pathology, organ weights",[2]; up to 160 mg/kg/day for 14 days,no toxicologically significant changes
same,MTD at 7 days,[3],160 mg/kg/day
same,MTD,[4]; Beagle dogs,3200 mg/m^2/day
same,Tolerability,[4]; single fospropofol doses up to 120 mg/kg or 120 and 160 mg/kg/day once daily for 7 days,tolerated at all closes with no mortality or adverse findings
same,"Sustained MBS-free response: No, %","[5]; 2-24 hours postdose, N = 18",(44.4) %
same,"Sustained MBS-free response: Yes, %","[5]; 2-24 hours postdose, N = 18",(55.6) %
same,"Sustained headache pain freedom: No, %","[5]; 2-24 hours postdose, N = 18",(77.8) %
same,"Sustained headache pain freedom: Yes, %","[5]; 2-24 hours postdose, N = 18",(22.2) %
same,"Sustained headache pain relief: No, %","[5]; 2-24 hours postdose, N = 18",(33.3) %
same,"Sustained headache pain relief: Yes, %","[5]; 2-24 hours postdose, N = 18",(66.7) %
same,"Sustained MBS-free response: No, %","[5]; 2-48 hours postdose, N = 18",(50) %
same,"Sustained MBS-free response: Yes, %","[5]; 2-48 hours postdose, N = 18",(50) %
same,"Sustained headache pain freedom: No, %","[5]; 2-48 hours postdose, N = 18",(83.3) %
same,"Sustained headache pain freedom: Yes, %","[5]; 2-48 hours postdose, N = 18",(16.7) %
same,"Sustained headache pain relief: No, %","[5]; 2-48 hours postdose, N = 18",(38.9) %
same,"Sustained headache pain relief: Yes, %","[5]; 2-48 hours postdose, N = 18",(61.1) %
same,"Most Bothersome Symptom: MBS free, %",[5]; [6],(38.9) %
same,"Most Bothersome Symptom: MBS present, %",[5]; [6],(61.1) %
same,"Severity of headache pain: Mild pain, %",[5]; [6],(50.0) %
same,"Severity of headache pain: Moderate pain, %",[5]; [6],(33.3) %
same,"Severity of headache pain: Pain free, %",[5]; [6],(5.6) %
same,"Severity of headache pain: Severe pain, %",[5]; [6],(11.1) %
same,"Most Bothersome Symptom: MBS free, %","[5]; 1 hr postdose, Total, N = 18",(38.9) %
same,"Most Bothersome Symptom: MBS present, %","[5]; 1 hr postdose, Total, N = 18",(61.1) %
same,"Severity of headache pain: Mild pain, %","[5]; 1 hr postdose, Total, N = 18",(50.0) %
same,"Severity of headache pain: Moderate pain, %","[5]; 1 hr postdose, Total, N = 18",(33.3) %
same,"Severity of headache pain: Pain free, %","[5]; 1 hr postdose, Total, N = 18",(5.6) %
same,"Severity of headache pain: Severe pain, %","[5]; 1 hr postdose, Total, N = 18",(11.1) %
same,Headache Pain level 1 hr,"[5]; 1 hr postdose, individual migraine subjects (N = 12)",Severe and Mild and None and Moderate
same,"Most Bothersome Symptom: MBS free, %",[5]; [7],(66.7) %
same,"Severity of headache pain: Mild pain, %",[5]; [7],(61.1) %
same,"Severity of headache pain: Moderate pain, %",[5]; [7],(16.7) %
same,"Severity of headache pain: Pain free, %",[5]; [7],(22.2) %
same,"Most Bothersome Symptom: MBS free, %","[5]; 2 h postdose, Total, N = 18",(66.7) %
same,"Most Bothersome Symptom: MBS present, %","[5]; 2 h postdose, Total, N = 18",(33.3) %
same,"Severity of headache pain: Mild pain, %","[5]; 2 h postdose, Total, N = 18",(61.1) %
same,"Severity of headache pain: Moderate pain, %","[5]; 2 h postdose, Total, N = 18",(16.7) %
same,"Severity of headache pain: Pain free, %","[5]; 2 h postdose, Total, N = 18",(22.2) %
same,Headache Pain level 2 hr,"[5]; 2 hr postdose, individual migraine subjects (N = 12)",Moderate and None and Mild
same,"Most Bothersome Symptom: MBS free, %",[5]; [8],(77.8) %
same,"Severity of headache pain: Mild pain, %",[5]; [8],(22.2) %
same,"Severity of headache pain: Moderate pain, %",[5]; [8],(5.6) %
same,"Severity of headache pain: Pain free, %",[5]; [8],(55.6) %
same,"Most Bothersome Symptom: MBS free, %","[5]; 4 h postdose, Rescue, N = 18",(11.1) %
same,"Most Bothersome Symptom: MBS present, %","[5]; 4 h postdose, Rescue, N = 18",(11.1) %
same,"Severity of headache pain: Mild pain, %","[5]; 4 h postdose, Rescue, N = 18",(5.6) %
same,"Severity of headache pain: Pain free, %","[5]; 4 h postdose, Rescue, N = 18",(11.1) %
same,"Most Bothersome Symptom: MBS free, %","[5]; 4 h postdose, Total, N = 18",(88.9) %
same,"Most Bothersome Symptom: MBS present, %","[5]; 4 h postdose, Total, N = 18",(11.1) %
same,"Severity of headache pain: Mild pain, %","[5]; 4 h postdose, Total, N = 18",(27.8) %
same,"Severity of headache pain: Moderate pain, %","[5]; 4 h postdose, Total, N = 18",(5.6) %
same,"Severity of headache pain: Pain free, %","[5]; 4 h postdose, Total, N = 18",(66.7) %
same,Headache Pain level 4 hr,"[5]; 4 hr postdose, individual migraine subjects (N = 12)",Moderate and None and Mild and Mild [b]
same,"Severity of headache pain: Mild pain, %",[5]; [9],(16.7) %
same,"Severity of headache pain: Moderate pain, %",[5]; [9],(11.1) %
same,"Severity of headache pain: Pain free, %",[5]; [9],(72.2) %
same,"Severity of headache pain: Moderate pain, %","[5]; 24 h postdose (D2), Rescue, N = 18",(11.1) %
same,"Severity of headache pain: Mild pain, %",[5]; [10],(16.7) %
same,"Severity of headache pain: Moderate pain, %",[5]; [10],(22.2) %
same,"Severity of headache pain: Pain free, %",[5]; [10],(72.2) %
same,"Most Bothersome Symptom: MBS free, %","[5]; 24 h postdose (Day 2), No rescue, N = 18",(72.2) %
same,"Most Bothersome Symptom: MBS free, %","[5]; 24 h postdose (Day 2), Rescue, N = 18",(11.1) %
same,"Most Bothersome Symptom: MBS free, %","[5]; 24 h postdose (Day 2), Total, N = 18",(83.3) %
same,"Severity of headache pain: Pain free, %","[5]; 48 h postdose (D3), No rescue, N = 18",(83.3) %
same,"Severity of headache pain: Mild pain, %",[5]; [11],(11.1) %
same,"Severity of headache pain: Moderate pain, %",[5]; [11],(22.2) %
same,"Severity of headache pain: Mild pain, %",[5]; [12],(11.1) %
same,"Severity of headache pain: Moderate pain, %",[5]; [12],(22.2) %
same,"Severity of headache pain: Pain free, %",[5]; [12],(83.3) %
same,"Most Bothersome Symptom: MBS free, %","[5]; 48 h postdose (Day 3), No rescue, N = 18",(66.7) %
same,"Most Bothersome Symptom: MBS free, %","[5]; 48 h postdose (Day 3), Rescue, N = 18",(11.1) %
same,"Most Bothersome Symptom: MBS free, %","[5]; 48 h postdose (Day 3), Total, N = 18",(77.8) %
same,"Most Bothersome Symptom: MBS free, %","[5]; Discharge, No rescue, N = 18",(72.2) %
same,"Severity of headache pain: Mild pain, %","[5]; Discharge, No rescue, N = 18",(11.1) %
same,"Severity of headache pain: Pain free, %","[5]; Discharge, No rescue, N = 18",(66.7) %
same,"Most Bothersome Symptom: MBS free, %","[5]; Discharge, Rescue, N = 18",(16.7) %
same,"Severity of headache pain: Mild pain, %","[5]; Discharge, Rescue, N = 18",(5-6) %
same,"Severity of headache pain: Pain free, %","[5]; Discharge, Rescue, N = 18",(11.1) %
same,"Most Bothersome Symptom: MBS free, %","[5]; Discharge, Total, N = 18",(88.9) %
same,"Severity of headache pain: Mild pain, %","[5]; Discharge, Total, N = 18",(16.7) %
same,"Severity of headache pain: Pain free, %","[5]; Discharge, Total, N = 18",(77.8) %
same,"Freedom from MBS at 2 hours: No, %",[5]; N = 18,(33.3) %
same,"Freedom from MBS at 2 hours: Yes, %",[5]; N = 18,(66.7) %
same,"Freedom from both migraine headache pain and MBS at 2 hours: No, %",[5]; N = 18,(77.8) %
same,"Freedom from both migraine headache pain and MBS at 2 hours: Yes, %",[5]; N = 18,(22.2) %
same,"Freedom from migraine headache pain at 2 hours: No, %",[5]; N = 18,(77.8) %
same,"Freedom from migraine headache pain at 2 hours: Yes, %",[5]; N = 18,(22.2) %
same,MBS (Y/N) 1 hr,"[5]; most bothersome symptom present, 1 hr postdose, individual migraine subjects (N = 12)",Yes and No
same,MBS (Y/N) 2 hr,"[5]; most bothersome symptom present, 2 hr postdose, individual migraine subjects (N = 12)",No and Yes
same,MBS (Y/N) 4 hr,"[5]; most bothersome symptom present, 4 hr postdose, individual migraine subjects (N = 12)",No and Yes and Yes [b]

# From US12377110B2, “Fospropofol methods and compositions” (Epalex Corporation, priority 2019, dated 2025)
